Measured values reported in US20240207362A1 (priority 2022, published 2024).
Entries after “also recorded” stand apart in the source; their conditions may differ.

System: dcLVs
Conditions: mouse, in vivo

| SMILES | contraction of dcLVs | amount of CSF tracer (in dcLV) | contraction or dilation of dcLVs |
| --- | --- | --- | --- |
| [Cl-].[K+] [potassium chloride] | strongly but transiently contracted | – | – |
| CNC[C@H](O)c1cccc(O)c1 [phenylephrine] | – | decreased | contracts; also recorded: dosage dependent contraction |
